Laboratory results taken from ChEMBL document CHEMBL5046250, “Discovery of Sortase A covalent inhibitors with benzofuranene cyanide structures as potential antibacterial agents against Staphylococcus aureus” (Eur J Med Chem, 2022).
The source made the active and inactive calls. The calls are words filed in the database; no cut-off is given here.

Experiments:
[1] = Inhibition of Staphylococcus aureus sortase A using Abz-LPATG-Dap(DNP)-NH2 as substrate preincubated for 1 hr followed by substrate addition by FRET assay
[2] = system: Staphylococcus aureus; assay: Binding affinity to staphylococcus aureus sortase A assessed as covalent adduct formation at Cys184 by LC-MS/MS analysis
[3] = system: Staphylococcus aureus; assay: Binding affinity to staphylococcus aureus sortase A assessed as covalent adduct formation by UPLC-TOF-MS analysis
[4] = system: Staphylococcus aureus; assay: Binding affinity to staphylococcus aureus sortase A assessed as increase in molecular mass by LC-MS/MS analysis
[5] = system: Staphylococcus aureus; assay: Antibiofilm activity against Staphylococcus aureus assessed as inhibition of biofilm formation measured after 15 to 18 hrs by crystal violet staining assay; format: functional, organism-based
[6] = system: Staphylococcus aureus; assay: Antibacterial activity against Staphylococcus aureus assessed as inhibition of bacterial invasion in HEK293T cells at 100 uM measured after 2 hrs by flow cytometry relative to control; format: functional, HEK-293T; set-up: scale not given: the % may be the effect or the level left
[7] = system: Staphylococcus aureus; assay: Antibacterial activity against Staphylococcus aureus assessed as inhibition of bacterial invasion in HEK293T cells at 25 uM measured after 2 hrs by flow cytometry relative to control; format: functional, HEK-293T; set-up: scale not given: the % may be the effect or the level left
[8] = system: Staphylococcus aureus; assay: Antibiofilm activity against Staphylococcus aureus assessed as inhibition of biofilm formation measured after 15 to 18 hrs in the presence of quercetin by crystal violet staining assay; format: functional, organism-based
[9] = system: Staphylococcus aureus; assay: Inhibition of Staphylococcus aureus sortase A assessed as reduction in SpA expression at 100 uM measured after overnight incubation by flow cytometry relative to control
[10] = system: Staphylococcus aureus; assay: Antibacterial activity against Staphylococcus aureus assessed as inhibition of bacterial invasion in HEK293T cells at 50 uM measured after 2 hrs by flow cytometry relative to control; format: functional, HEK-293T; set-up: scale not given: the % may be the effect or the level left
[11] = system: Staphylococcus aureus; assay: Antibacterial activity against Staphylococcus aureus assessed as inhibition of bacterial invasion in HEK293T cells at 6.25 uM measured after 2 hrs by flow cytometry relative to control; format: functional, HEK-293T; set-up: scale not given: the % may be the effect or the level left
[12] = system: Staphylococcus aureus; assay: Antibacterial activity against Staphylococcus aureus assessed as inhibition of bacterial invasion in HEK293T cells at 12.5 uM measured after 2 hrs by flow cytometry relative to control; format: functional, HEK-293T; set-up: scale not given: the % may be the effect or the level left

Row | SMILES | IC50 [1] | also measured
1 | CC(C)CNC(=O)c1c(-c2ccc(/C(C#N)=C/c3ccc(F)cc3)cc2)oc2ccccc12 | 19.7 µM | 
2 | CC(C)CNC(=O)c1c(-c2ccc(/C(C#N)=C/c3ccccc3)cc2)oc2ccc(Cl)cc12 | 29.9 µM | 
3 | Cc1cc(C)c(/C=C(\C#N)c2ccc(-c3oc4ccccc4c3C(=O)NCC(C)C)cc2)c(C)c1 | 32.2 µM | 
4 | CCc1ccc(/C=C(\C#N)c2ccc(-c3oc4c(OC)cccc4c3C(=O)NCC(C)C)cc2)cc1 | 48.6 µM | 
5 | C=C(C#N)c1ccc(-c2oc3ccccc3c2C(=O)NCC(C)C)cc1 | 15.2 µM | Activity [2]: Active; Activity [3]: Active; Activity [4]: 344 Da
6 | CC(C)CNC(=O)c1c(-c2ccc(/C(C#N)=C/c3ccc(Br)cc3)cc2)oc2ccc(Cl)cc12 | 16.4 µM | 
7 | Cc1ccc(/C=C(\C#N)c2ccc(-c3oc4ccccc4c3C(=O)NCC(C)C)cc2)cc1 | 14.1 µM | 
8 | CC(C)CNC(=O)c1c(-c2ccc(/C(C#N)=C/c3ccc(Br)cc3)cc2)oc2ccccc12 | 19.1 µM | 
9 | Cc1ccc(/C=C(\C#N)c2ccc(-c3oc4ccc(Cl)cc4c3C(=O)NCC(C)C)cc2)cc1C | > 100 µM | 
10 | COc1cccc2c(C(=O)NCC(C)C)c(-c3ccc(/C(C#N)=C/c4ccc(C)c(C)c4)cc3)oc12 | > 100 µM | 
11 | COc1cccc2c(C(=O)NCC(C)C)c(-c3ccc(/C(C#N)=C/c4ccccc4C(=O)O)cc3)oc12 | 28.4 µM | 
12 | COc1ccc(/C=C(\C#N)c2ccc(-c3oc4ccc(Cl)cc4c3C(=O)NCC(C)C)cc2)cc1 | 64.1 µM | 
13 | Cc1ccc(/C=C(\C#N)c2ccc(-c3oc4ccccc4c3C(=O)NCC(C)C)cc2)cc1C | 17.5 µM | 
14 | Cc1cc(C)c(/C=C(\C#N)c2ccc(-c3oc4ccc(Cl)cc4c3C(=O)NCC(C)C)cc2)c(C)c1 | 37.9 µM | 
15 | COc1ccc(/C=C(\C#N)c2ccc(-c3oc4c(OC)cccc4c3C(=O)NCC(C)C)cc2)cc1OC | 14.5 µM | 
16 | Cc1ccc(/C=C(\C#N)c2ccc(-c3oc4ccc(Cl)cc4c3C(=O)NCC(C)C)cc2)cc1 | 47.1 µM | 
17 | COc1ccc(/C=C(\C#N)c2ccc(-c3oc4ccc(Cl)cc4c3C(=O)NCC(C)C)cc2)cc1OC | 49.1 µM | 
18 | COc1ccc(OC)c(/C=C(\C#N)c2ccc(-c3oc4ccccc4c3C(=O)NCC(C)C)cc2)c1 | 21.8 µM | 
19 | COc1ccc(OC)c(/C=C(\C#N)c2ccc(-c3oc4c(OC)cccc4c3C(=O)NCC(C)C)cc2)c1 | 52.8 µM | 
20 | CC(C)CNC(=O)c1c(-c2ccc(C(C#N)Cc3ccc(OCc4ccccc4)cc3)cc2)oc2ccccc12 (stereo unspecified) | 15 µM | 
21 | COc1ccc(OC)c(/C=C(\C#N)c2ccc(-c3oc4ccc(Cl)cc4c3C(=O)NCC(C)C)cc2)c1 | 15.5 µM | 
22 | COc1cccc2c(C(=O)NCC(C)C)c(-c3ccc(/C(C#N)=C/c4ccc(Br)cc4)cc3)oc12 | 15.5 µM | 

Now from value to compound, other results behind:

Row | IC50 [1] | SMILES | also measured
23 | 10.1 µM | COc1cccc2c(C(=O)NCC(C)C)c(-c3ccc(/C(C#N)=C/c4ccc(C)cc4)cc3)oc12 | 
24 | 11.9 µM | COc1ccc(/C=C(\C#N)c2ccc(-c3oc4ccccc4c3C(=O)NCC(C)C)cc2)cc1 | 
25 | 12.1 µM | COc1ccc(/C=C(\C#N)c2ccc(-c3oc4c(OC)cccc4c3C(=O)NCC(C)C)cc2)cc1 | 
26 | 7.9 µM | CC(C)CNC(=O)c1c(-c2ccc(C(C#N)Cc3ccc(O)cc3)cc2)oc2ccccc12 (stereo unspecified) | IC50 [5]: 14.3 µM; Activity [6]: 2.8%
27 | 13.7 µM | CC(C)CNC(=O)c1c(-c2ccc(C(C#N)Cc3ccc(O)c(O)c3)cc2)oc2ccccc12 (stereo unspecified) | 
28 | 13.8 µM | CCc1ccc(/C=C(\C#N)c2ccc(-c3oc4ccc(Cl)cc4c3C(=O)NCC(C)C)cc2)cc1 | 
29 | 3.3 µM | CC(C)CNC(=O)c1c(-c2ccc(/C(C#N)=C/c3ccc(OCc4ccccc4)c(OCc4ccccc4)c3)cc2)oc2ccccc12 | Activity [7]: 16%; IC50 [8]: 2.08 µM; inhibition [9]: 26.5%; Activity [10]: 19.1%; IC50 [5]: 2.1 µM; Activity [6]: 24%; Activity [11]: 2.9%; Activity [12]: 7.4%
30 | 9.4 µM | CCc1ccc(/C=C(\C#N)c2ccc(-c3oc4ccccc4c3C(=O)NCC(C)C)cc2)cc1 | 
31 | 5.9 µM | COc1cccc2c(C(=O)NCC(C)C)c(-c3ccc(/C(C#N)=C/c4ccc(Cl)cc4)cc3)oc12 | 
32 | 6 µM | CC(C)CNC(=O)c1c(-c2ccc(/C(C#N)=C/c3ccc(OCc4ccccc4)cc3)cc2)oc2ccccc12 | 
33 | 9.8 µM | CC(C)CNC(=O)c1c(-c2ccc(/C(C#N)=C/c3ccc(Cl)cc3)cc2)oc2ccccc12 | 
34 | 9.6 µM | COc1ccc(/C=C(\C#N)c2ccc(-c3oc4ccccc4c3C(=O)NCC(C)C)cc2)cc1OC | 
35 | 8.8 µM | CC(C)CNC(=O)c1c(-c2ccc(/C(C#N)=C/c3ccccc3)cc2)oc2ccccc12 | IC50 [5]: 19.7 µM; Activity [6]: 17.9%
36 | 12.2 µM | CC(C)CNC(=O)c1c(-c2ccc(/C(C#N)=C/c3ccc(C(F)(F)F)cc3)cc2)oc2ccccc12 | 
37 | 11.9 µM | COc1cccc2c(C(=O)NCC(C)C)c(-c3ccc(/C(C#N)=C/c4ccccc4)cc3)oc12 | 
38 | 9.7 µM | CC(C)CNC(=O)c1c(-c2ccc(/C(C#N)=C/c3ccccc3C(=O)O)cc2)oc2ccccc12 | 
39 | 6.8 µM | CC(C)CNC(=O)c1c(-c2ccc(/C(C#N)=C/c3ccc(Cl)cc3)cc2)oc2ccc(Cl)cc12 | IC50 [5]: 54.2 µM; Activity [6]: 4%
